Experimental data: patent EP2878292A2, “Application of cosmetic compositions for the inactivation and/or elimination of skin mites” (Henkel AG & Co. KGaA, priority 2013, dated 2015)

System: Haustaubmilben
Format: in vivo
Method: Die zu testende Substanz wurde mit Wasser auf die vorgesehene Einsatzkonzentration verdünnt (s.u.). Haustaubmilben, die aufgrund ihrer großen Ähnlichkeit als Vergleich zu Haarbalgmilben (Demodex) verwendet werden, wurden aus ihrem Futter isoliert und auf 1,5 cm x 1,5 cm große Filterpapierstücke übertragen. Etwa 100 Milben je Ansatz wurden mit 50 µl der zu testenden Substanzen in den vorhergesehenen Verdünnungen betropft. Die überschüssige Flüssigkeit wurde nach 10 Sekunden abgesaugt. Die noch feuchten Filterpapiere mit den Milben wurden nach der Behandlung in eine Petrischale gebracht, die mit einem Deckel und einer Umrandung mit Paraffin verschlossen wurden, um sicherzustellen, dass evtl. überlebende Milben nicht entweichen können. Die Milben können nach Beginn einer Behandlung - gleichgültig mit welchem Mittel - unbeweglich werden, sich jedoch später wieder erholen und ihre Beweglichkeit zumindest für kurze Zeit wiedererlangen. Andererseits ist es auch möglich, dass Milben in den ersten Stunden nach einer Behandlung noch vital erscheinen, jedoch bereits so stark geschädigt sind, dass sie innerhalb eines Tages bis zu 2-3 Tagen sterben. Daher wurden die Petrischalen für einen Tag aufbewahrt, und die Milben dann erst auf ihre Vitalität bewertet.
Die Anzahl der toten und lebenden Milben wurde bestimmt und in % der Sterberate umgerechnet.
Die Versuche wurden zweifach durchgeführt. […]

Sterberate (Mittelwert) (house dust mite, in vivo, topical, 24 h): 10,9%
Compound: CCCCCCCCC(O)CO (centres unmarked) [Symclariol, 1,2-Decanediol]
Inaktivierung bzw. Eliminierung von Milben (conclusion in words drawn from the test at 2%): wirksam
